Assays:
[1] = test system: TF-1 cells; experiment: cell proliferation assay using TF-1 cells (tritiated thymidine incorporation); assay type: cell-based, human; conditions: 72 hours at 37° C., tritiated thymidine for the final four hours
Experimental: The potency of the purified recombinant fusion protein was evaluated in a cell proliferation assay using TF-1 cells. TF-1 cells are a continuous cell line derived from human erythroid leukemia cells, and are dependent on IL-3 or GM-CSF for growth. TF-1 cells were maintained in medium containing GM-CSF. Prior to being used in an assay, the cells were washed free of GM-CSF, and resuspended to a concentration of 5×10^4 cells/ml in assay medium (Iscove's Modification of Dulbecco's Medium). The suspended cells were added to the wells of a 96-well microtiter plate containing dilutions of the recombinant fusion protein preparation, positive controls, or negative controls. The cells were incubated at 37° C. for 72 hours; proliferation was measured by adding tritiated thymidine for the final four hours of the incubation. The cells were harvested onto glass fiber filters, and the amount of radioactivity incorporated was determined by scintillation counting.

[2] = target: T1, GM-CSF receptor (Homo sapiens, UniProt P15509+P32927); experiment: binding affinity for GM-CSF receptor (as described by Park et al.)
T1 construct: endogenous in cells
T1 sequence (P15509 23-400): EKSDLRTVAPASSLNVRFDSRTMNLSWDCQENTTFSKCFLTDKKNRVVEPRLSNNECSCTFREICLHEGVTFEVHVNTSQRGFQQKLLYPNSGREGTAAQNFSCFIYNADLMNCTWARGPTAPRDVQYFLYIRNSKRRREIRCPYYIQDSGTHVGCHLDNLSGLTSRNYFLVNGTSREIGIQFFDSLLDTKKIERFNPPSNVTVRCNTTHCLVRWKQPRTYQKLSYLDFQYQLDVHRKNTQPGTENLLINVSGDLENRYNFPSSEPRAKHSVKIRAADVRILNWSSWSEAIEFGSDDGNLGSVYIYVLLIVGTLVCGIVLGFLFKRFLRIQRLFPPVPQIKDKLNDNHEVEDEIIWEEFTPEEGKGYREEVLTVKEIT
T1 sequence (P32927 17-897): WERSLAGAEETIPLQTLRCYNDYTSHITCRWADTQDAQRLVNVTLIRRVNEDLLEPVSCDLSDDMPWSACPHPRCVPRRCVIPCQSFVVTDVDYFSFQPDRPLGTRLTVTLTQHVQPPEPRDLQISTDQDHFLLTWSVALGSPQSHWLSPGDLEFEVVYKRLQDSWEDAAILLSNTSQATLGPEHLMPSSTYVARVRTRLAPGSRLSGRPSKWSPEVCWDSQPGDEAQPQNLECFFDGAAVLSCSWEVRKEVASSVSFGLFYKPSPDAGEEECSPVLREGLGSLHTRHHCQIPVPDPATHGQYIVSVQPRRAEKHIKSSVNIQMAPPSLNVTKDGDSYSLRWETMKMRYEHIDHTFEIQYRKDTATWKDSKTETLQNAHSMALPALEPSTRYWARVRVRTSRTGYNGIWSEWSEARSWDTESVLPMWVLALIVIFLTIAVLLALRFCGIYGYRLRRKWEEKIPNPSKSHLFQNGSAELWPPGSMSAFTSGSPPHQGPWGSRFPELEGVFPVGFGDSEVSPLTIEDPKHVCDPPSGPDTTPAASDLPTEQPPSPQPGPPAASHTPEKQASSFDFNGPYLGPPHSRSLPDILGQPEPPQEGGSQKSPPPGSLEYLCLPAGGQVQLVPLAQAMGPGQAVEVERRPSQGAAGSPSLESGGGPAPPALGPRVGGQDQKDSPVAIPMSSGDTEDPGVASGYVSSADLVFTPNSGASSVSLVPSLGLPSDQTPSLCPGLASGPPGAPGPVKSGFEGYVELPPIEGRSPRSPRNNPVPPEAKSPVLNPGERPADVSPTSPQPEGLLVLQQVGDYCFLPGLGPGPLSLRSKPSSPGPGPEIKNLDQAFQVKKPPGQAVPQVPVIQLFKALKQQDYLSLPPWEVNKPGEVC
Experimental: (§1) The binding affinity of the recombinant fusion protein for receptors for both GM-CSF and IL-3 were determined substantially as described by Park et al., J. Biol. Chem. 264:5420; 1989, and Park et al., Blood 74:56; 1989.

[3] = target: T2, IL-3 receptor (Homo sapiens, UniProt P26951+P32927); experiment: binding affinity for IL-3 receptor (as described by Park et al.)
T2 construct: endogenous in cells
T2 sequence (P26951 19-378): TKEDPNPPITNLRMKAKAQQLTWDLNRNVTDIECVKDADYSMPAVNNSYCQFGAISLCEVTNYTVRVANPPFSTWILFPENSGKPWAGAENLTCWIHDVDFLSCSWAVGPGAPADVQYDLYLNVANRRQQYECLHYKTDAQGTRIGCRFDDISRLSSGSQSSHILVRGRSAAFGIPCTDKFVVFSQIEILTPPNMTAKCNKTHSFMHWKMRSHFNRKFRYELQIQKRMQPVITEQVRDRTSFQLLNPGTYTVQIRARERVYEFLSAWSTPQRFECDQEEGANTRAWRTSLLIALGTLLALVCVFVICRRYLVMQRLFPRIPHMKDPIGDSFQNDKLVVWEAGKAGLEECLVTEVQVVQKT
T2 sequence (P32927 17-897): T1 sequence (P32927 17-897)
Experimental: as §1

Substance: huGM-CSF[Leu^23 Asp^27 Glu^39 ]/Gly4 SerGly5 Ser/hulL-3[Pro^8 Asp^15 Asp^70 ] [recombinant fusion protein]
- potency (a unit is the amount of recombinant fusion protein that induces half-maximal proliferation in the TF-1 bioassay) [1]: 2.1×10^8 U/mg
- binding affinity for GM-CSF receptor [2]: 1e+10 M⁻¹
- binding affinity for IL-3 receptor [3]: 2.2e+10 M⁻¹

— patent US5463029A, “Purification of fusion proteins comprising GM-CSF and IL-3” (Immunex Corporation, priority 1992, dated 1995)
